The source made the active and inactive calls.
Key:
[1] = Luminescent dose response cell-based high throughput screening assay for inhibitors of the Janus kinase 2 mutant JAK2V617F. [Related pubchem assays: 1446 (Primary screen.), 1521 (Confirmation assay.), 1486 (Counter screen.)]; format: functional
[2] = target: T1, Microphthalmia-associated transcription factor (Homo sapiens, UniProt O75030); experiment: reducers of TRPM1 reporter luminescence, concentration series – cell-based, SK-MEL-5, cherry-picked, set 3, MITF inhibitor project, dose response (AID 493073); format: functional;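 further: SK-MEL-5 melanoma cells with luciferase driven by the MITF target TRPM1 promoter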
T1 sequence (O75030 whole entry): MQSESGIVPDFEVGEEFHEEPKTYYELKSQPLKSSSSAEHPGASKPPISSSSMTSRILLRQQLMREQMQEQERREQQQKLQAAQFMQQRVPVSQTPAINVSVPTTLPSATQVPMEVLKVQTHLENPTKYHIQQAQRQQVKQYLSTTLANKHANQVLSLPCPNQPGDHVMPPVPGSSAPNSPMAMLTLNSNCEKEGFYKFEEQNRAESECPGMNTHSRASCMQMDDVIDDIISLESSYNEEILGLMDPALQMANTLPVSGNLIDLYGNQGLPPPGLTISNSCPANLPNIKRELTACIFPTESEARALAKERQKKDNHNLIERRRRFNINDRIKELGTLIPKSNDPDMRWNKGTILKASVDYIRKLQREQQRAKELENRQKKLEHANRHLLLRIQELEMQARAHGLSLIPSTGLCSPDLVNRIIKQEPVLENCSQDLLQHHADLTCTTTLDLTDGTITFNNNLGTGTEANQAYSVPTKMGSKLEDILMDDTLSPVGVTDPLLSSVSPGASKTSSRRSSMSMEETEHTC

INS1 = experiment: INS-1E survival protection against cytokine death – cell-based, luminescence, retest, dose response (AID 449756); format: functional; details: Rattus norvegicus;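 further: cell death triggered by IL-1 beta plus TNF-alpha plus IFN-gamma mixture; protective hits raise ATP signal compared with cytokine alone wells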
A-375 = experiment: proliferation inhibition in MITF-low A375 cells – cell-based, cherry-pick samples, set 2, counter-screen for MITF modulator project, dose response (AID 540335); format: functional; details: Homo sapiens
[3] = Counterscreen for inhibitors of Trypanosoma brucei methionyl tRNA synthetase (MetRS): Luminescence-based cell-based high throughput dose response assay to identify compounds that are cytotoxic to Jurkat human T lymphocyte cells.; format: functional
[4] = target: T2, Methionyl-tRNA synthetase, putative (Trypanosoma brucei brucei, UniProt Q38C91); format: functional, Trypanosoma brucei brucei strain 927/4 GUTat10.1
T2 sequence (Q38C91 whole entry): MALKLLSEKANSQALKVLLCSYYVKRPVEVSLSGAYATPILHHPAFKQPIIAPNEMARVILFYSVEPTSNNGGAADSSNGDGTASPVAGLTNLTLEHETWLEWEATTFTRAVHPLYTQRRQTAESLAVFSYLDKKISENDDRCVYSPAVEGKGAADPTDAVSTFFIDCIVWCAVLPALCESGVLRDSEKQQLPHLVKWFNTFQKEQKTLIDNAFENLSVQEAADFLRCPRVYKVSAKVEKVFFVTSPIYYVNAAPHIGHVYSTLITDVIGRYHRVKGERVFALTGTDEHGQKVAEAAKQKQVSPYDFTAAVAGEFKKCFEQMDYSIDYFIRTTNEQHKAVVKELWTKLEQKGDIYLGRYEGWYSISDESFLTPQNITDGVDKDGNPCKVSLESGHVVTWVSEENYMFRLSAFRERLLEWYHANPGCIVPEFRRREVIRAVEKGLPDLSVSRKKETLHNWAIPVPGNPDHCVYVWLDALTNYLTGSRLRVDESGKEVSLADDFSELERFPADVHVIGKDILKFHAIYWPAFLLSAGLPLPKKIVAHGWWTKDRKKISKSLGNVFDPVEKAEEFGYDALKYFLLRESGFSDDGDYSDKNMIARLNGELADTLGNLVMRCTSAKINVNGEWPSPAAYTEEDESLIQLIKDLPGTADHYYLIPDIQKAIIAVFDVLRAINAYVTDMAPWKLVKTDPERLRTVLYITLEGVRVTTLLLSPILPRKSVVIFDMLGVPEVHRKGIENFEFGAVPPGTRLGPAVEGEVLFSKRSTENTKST

[5] = target: T2, Methionyl-tRNA synthetase, putative; format: functional, Trypanosoma brucei brucei strain 927/4 GUTat10.1; remark: listed apart in the source
[6] = target: 26S proteasome non-ATPase regulatory subunit 14 (Homo sapiens, UniProt O00487); experiment: inhibition of proteasome subunit RPN11 – biochemical, fluorescence polarization, uHTS hits, confirmation (AID 602368); format: functional
Sequence of 26S proteasome non-ATPase regulatory subunit 14 (O00487 whole entry): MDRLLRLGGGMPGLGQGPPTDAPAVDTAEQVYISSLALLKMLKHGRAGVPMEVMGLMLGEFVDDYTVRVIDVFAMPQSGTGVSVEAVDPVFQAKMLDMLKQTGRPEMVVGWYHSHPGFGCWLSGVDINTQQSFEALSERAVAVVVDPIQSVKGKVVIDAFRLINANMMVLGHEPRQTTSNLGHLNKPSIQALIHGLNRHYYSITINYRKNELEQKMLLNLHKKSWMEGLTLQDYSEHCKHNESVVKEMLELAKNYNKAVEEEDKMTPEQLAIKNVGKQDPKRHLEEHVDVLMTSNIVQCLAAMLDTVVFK

[7] = target: 72 kDa type IV collagenase (Homo sapiens, UniProt P08253); experiment: Dose Response validation of uHTS RPN11 inhibitor hits using a MMP-2 Fluorescence assay.; format: functional
Sequence of 72 kDa type IV collagenase (P08253 whole entry): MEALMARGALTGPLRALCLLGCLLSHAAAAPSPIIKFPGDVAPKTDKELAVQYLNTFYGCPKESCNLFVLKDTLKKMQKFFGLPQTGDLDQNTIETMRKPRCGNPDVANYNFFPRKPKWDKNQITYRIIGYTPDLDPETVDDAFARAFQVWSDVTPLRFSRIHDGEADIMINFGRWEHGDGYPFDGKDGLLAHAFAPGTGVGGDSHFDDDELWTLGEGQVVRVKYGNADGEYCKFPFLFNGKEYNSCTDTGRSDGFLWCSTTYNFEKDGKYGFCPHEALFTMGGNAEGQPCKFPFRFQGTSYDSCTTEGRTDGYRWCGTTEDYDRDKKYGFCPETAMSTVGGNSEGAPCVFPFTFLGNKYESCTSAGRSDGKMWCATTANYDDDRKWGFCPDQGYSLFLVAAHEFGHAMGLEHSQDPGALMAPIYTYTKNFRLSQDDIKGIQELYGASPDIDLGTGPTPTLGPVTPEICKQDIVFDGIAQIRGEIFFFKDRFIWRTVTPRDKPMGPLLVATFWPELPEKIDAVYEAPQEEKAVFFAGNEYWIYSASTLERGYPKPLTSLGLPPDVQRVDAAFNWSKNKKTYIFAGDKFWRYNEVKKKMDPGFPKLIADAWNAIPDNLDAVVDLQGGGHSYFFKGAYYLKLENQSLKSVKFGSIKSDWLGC

Prothrombin = Prothrombin (Bos taurus, UniProt P00735); experiment: thrombin protease inhibitors – biochemical, fluorescence polarization, uHTS hits, dose response (AID 602369); format: functional
[8] = target: T3, Probable nicotinate-nucleotide adenylyltransferase (Staphylococcus aureus (strain N315), UniProt P65502); format: functional, Staphylococcus aureus subsp. aureus N315;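 on IC50 Mean: confirmatory dose-response retesting of NadD inhibitor hits first found in an ultra-high-throughput screen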
T3 sequence (P65502 whole entry): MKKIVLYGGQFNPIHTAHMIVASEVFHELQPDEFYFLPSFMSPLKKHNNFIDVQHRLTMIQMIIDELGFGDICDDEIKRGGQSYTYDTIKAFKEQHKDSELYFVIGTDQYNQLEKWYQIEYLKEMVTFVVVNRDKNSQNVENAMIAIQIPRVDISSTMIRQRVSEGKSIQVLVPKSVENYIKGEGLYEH

[9] = target: T3, Probable nicotinate-nucleotide adenylyltransferase; format: functional, Staphylococcus aureus subsp. aureus N315; details: read-out: IC50_Mean
[10] = blockade of melanocortin 4 receptor signaling – cell-based, plate reader, cherry pick, counter-screen for LGR2 antagonist project, dose response (AID 743444); format: functional;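 further: transfected HEK 293 cells stimulated with alpha-MSH peptide; potency of inhibitors of the alpha-MSH evoked signal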
cells = format: functional, cell-based
[11] = blockers of bursicon-stimulated LGR2 cAMP reporter – cell-based, HEK293, CRE-luciferase reporter, cherry pick, set 2, dose response (AID 743343); format: functional;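 further: transfected cells were stimulated with diluted bursicon conditioned medium after compound addition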
[12] = viability loss in HEK293 cells – cell-based, plate reader, cherry-picked samples, cytotoxicity control, dose response (AID 743446); format: functional
HEK293 [13] = experiment: EBV LMP1 TES2 canonical NF-kB signalling blockers – cell-based, HEK293, luciferase, cherry-pick, dose response (AID 588343); format: functional; details: Homo sapiens
[14] = A549 cell cytotoxicity, dose response, cytotoxicity control, plate reader, cherry-pick, antagonist series (AID 743412); format: functional, cell-based
[15] = target: Nuclear receptor subfamily 0 group B member 1 (Homo sapiens, UniProt P51843); format: functional, cell-based;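 further: HEK293T cells transfected with SF-1 and DAX-1 plus StAR promoter luciferase reporter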
Sequence of Nuclear receptor subfamily 0 group B member 1 (P51843 whole entry): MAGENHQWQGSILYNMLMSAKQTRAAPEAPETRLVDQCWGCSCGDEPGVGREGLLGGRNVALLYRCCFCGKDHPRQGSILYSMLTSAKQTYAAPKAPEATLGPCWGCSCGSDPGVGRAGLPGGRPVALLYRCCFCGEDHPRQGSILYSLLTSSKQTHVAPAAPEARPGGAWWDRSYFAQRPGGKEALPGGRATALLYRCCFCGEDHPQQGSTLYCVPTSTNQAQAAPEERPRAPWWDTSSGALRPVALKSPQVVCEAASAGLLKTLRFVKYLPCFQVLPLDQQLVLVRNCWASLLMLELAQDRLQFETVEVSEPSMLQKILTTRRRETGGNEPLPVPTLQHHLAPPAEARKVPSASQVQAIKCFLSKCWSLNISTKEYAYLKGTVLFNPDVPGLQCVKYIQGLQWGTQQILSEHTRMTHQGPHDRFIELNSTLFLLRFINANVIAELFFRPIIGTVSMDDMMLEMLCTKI

[16] = target: Beta-2 adrenergic receptor (Homo sapiens, UniProt P07550); experiment: ADRB2 activation measured by internalization – cell-based, FAP fluorogen, flow cytometry, cherry pick 1, dose response (AID 588763); format: functional
Sequence of Beta-2 adrenergic receptor (P07550 whole entry): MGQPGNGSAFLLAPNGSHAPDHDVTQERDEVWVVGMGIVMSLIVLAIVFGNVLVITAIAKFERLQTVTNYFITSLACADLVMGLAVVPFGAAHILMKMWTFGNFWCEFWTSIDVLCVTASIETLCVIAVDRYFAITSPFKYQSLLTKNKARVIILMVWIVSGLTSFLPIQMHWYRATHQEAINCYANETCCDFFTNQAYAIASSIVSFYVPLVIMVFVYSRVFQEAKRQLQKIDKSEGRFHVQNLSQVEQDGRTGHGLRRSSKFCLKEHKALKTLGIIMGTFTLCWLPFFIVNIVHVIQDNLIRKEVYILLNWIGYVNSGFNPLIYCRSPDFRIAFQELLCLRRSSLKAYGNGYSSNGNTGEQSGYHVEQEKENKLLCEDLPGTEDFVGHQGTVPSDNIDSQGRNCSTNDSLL

HEK293 [17] = experiment: NOD2 signaling inhibitors in MDP-stimulated cells, cell-based, uHTS, luminescence (AID 2001); format: functional; details: Homo sapiens
HEK293 [18] = experiment: cells; format: functional, cell-based; details: Homo sapiens
HEK293 [19] = experiment: cells; format: functional, cell-based; details: Homo sapiens; remark: listed apart in the source
HEK293 [20] = experiment: inhibition of NOD1-driven NF-kB reporter – cell-based, luminescence, uHTS, primary screen (AID 1578); format: functional; details: Homo sapiens
[21] = target: Nucleotide-binding oligomerization domain-containing protein 2 (Homo sapiens, UniProt Q9HC29); experiment: inhibition of NOD2-driven NF-kB reporter – cell-based, luminescence, uHTS, HEK293 (AID 1566); format: functional
Sequence of Nucleotide-binding oligomerization domain-containing protein 2 (Q9HC29 whole entry, the tested form may be a part): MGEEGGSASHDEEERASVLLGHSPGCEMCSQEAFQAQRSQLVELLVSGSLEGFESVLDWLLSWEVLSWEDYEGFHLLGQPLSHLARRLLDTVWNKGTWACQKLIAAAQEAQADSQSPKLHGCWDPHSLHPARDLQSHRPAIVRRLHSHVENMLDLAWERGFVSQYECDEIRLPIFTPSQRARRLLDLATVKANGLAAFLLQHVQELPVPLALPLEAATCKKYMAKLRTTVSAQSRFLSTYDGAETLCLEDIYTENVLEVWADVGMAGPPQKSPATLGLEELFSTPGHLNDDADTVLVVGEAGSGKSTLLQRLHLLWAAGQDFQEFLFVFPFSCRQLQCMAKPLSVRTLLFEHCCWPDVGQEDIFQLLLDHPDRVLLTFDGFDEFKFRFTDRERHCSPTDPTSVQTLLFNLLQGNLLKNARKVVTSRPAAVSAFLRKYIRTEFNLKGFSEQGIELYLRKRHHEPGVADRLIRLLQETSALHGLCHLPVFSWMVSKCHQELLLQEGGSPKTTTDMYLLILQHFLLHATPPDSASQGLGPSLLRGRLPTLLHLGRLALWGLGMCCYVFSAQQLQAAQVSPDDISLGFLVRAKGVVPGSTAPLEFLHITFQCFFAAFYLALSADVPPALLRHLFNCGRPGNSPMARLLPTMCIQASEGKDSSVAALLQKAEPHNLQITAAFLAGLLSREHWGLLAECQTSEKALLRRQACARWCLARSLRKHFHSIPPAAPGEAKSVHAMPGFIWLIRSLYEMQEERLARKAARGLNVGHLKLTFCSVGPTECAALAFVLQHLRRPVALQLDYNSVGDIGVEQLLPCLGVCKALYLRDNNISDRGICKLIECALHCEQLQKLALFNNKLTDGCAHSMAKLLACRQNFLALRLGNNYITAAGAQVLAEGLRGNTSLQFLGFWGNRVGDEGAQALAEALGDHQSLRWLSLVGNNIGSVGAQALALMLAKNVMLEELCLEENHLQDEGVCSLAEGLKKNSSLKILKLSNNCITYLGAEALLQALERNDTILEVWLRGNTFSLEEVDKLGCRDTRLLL

HEK293 [22] = experiment: cells; format: functional, cell-based; details: Homo sapiens; remark: listed apart in the source
Albumin = Albumin (Bos taurus, UniProt P02769); experiment: Counterscreen for inhibitors of T-cell receptor (TCR)-CD3 interaction: Fluorescence-based biochemical high throughput dose response assay to identify inhibitors of T-cell receptor (TCR)-CD3 interaction using a TAMRA-labeled BSA probe.; format: functional
Sequence of Albumin (P02769 whole entry): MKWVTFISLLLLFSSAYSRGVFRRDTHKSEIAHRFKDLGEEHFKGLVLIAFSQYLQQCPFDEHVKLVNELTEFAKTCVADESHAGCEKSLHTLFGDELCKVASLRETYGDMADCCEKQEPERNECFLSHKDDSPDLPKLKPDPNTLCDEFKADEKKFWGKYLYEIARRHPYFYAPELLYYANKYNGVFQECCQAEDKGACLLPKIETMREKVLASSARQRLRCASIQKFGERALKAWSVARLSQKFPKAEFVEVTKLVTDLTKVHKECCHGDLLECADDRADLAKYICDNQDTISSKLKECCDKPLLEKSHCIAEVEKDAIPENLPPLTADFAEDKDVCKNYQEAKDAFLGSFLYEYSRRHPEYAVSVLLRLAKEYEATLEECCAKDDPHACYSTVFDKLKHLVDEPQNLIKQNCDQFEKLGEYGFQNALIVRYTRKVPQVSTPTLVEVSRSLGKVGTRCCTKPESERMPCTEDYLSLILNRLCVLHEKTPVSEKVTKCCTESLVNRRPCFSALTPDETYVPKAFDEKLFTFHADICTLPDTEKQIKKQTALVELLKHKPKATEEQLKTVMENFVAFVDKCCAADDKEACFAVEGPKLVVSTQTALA

[23] = bead-based luminescence quenchers, dual-tagged ARNT – biochemical, AlphaScreen, cherry-pick, artefact control for ARNT-TACC3 interaction inhibitor project, dose response (AID 651705); format: functional;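 further: AlphaScreen bead proximity signal that flags compounds interfering with the detection technology; potency reflects signal decrease which marks the compound as an assay artifact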

## CCCCn1c(=N)n(CC(=O)c2ccc(Br)s2)c2ccccc21
[1]
  IC50: 1.42 µM (active)
[2]
  AC50: 7.45 µM (active)
INS1
  AC50: 7.71 µM (active)
A-375
  AC50: 30.3 µM (active)

## COc1ccc(CNC(=O)CSc2n[nH]c3c4cc(C)ccc4nc-3n2)cc1
[3]
  IC50: 83.3 µM (inactive)
[4]
  IC50: 0.72 µM (active)
[5]
  IC50: 11 µM (inactive)

## CCOC(=O)CSc1nc2ccccc2n1C(=O)OCC
[6]
  IC50: 21.1 µM (active)
[7]
  IC50: > 100 µM (inactive)
Prothrombin
  IC50: 28.1 µM (active)

## C=CCNC(=S)NNC(=O)c1ccc(=O)n(Cc2ccc(Cl)cc2Cl)c1
[3]
  IC50: 83.3 µM (inactive)
[4]
  IC50: 13.4 µM (inactive)
[5]
  IC50: 281 µM (inactive)

## O=C(CSc1nnc(-c2cc3ccccc3cc2O)n1Cc1ccco1)N1CCc2ccccc2C1
[8]
  IC50: 9.71 µM (active)
[9]
  IC50: 30.6 µM (active)

## COC(=O)c1ccc2nc(-c3ccc4c(c3)OCO4)cn2c1
[10]
  AC50: 2.22 µM (active)
cells
  IC50: > 67.5 µM (inactive)
[11]
  AC50: 2.13 µM (active)
[12]
  AC50: > 52 µM (inactive)
HEK293 [13]
  AC50: 1.57 µM (active)
[14]
  AC50: > 52 µM (inactive)
[15]
  IC50: > 0.0925 µM (active)

## O=S(=O)(Nc1cccc(-c2cn3cccnc3n2)c1)c1ccc(-c2ccccc2)cc1
[16]
  EC50: 4.33 µM (active)
HEK293 [17]
  IC50: 6.98 µM (active)
HEK293 [18]
  IC50: > 20 µM (inactive)
HEK293 [19]
  IC50: 14.5 µM (active)
HEK293 [20]
  EC50: 8.6 µM (active)
[21]
  EC50: 10.3 µM (active)
HEK293 [22]
  IC50: 6.52 µM (active)

## CC(C)C(=O)Nc1ccc(C(=O)NNC(=S)NC(=O)c2ccco2)cc1
Albumin
  IC50: > 94.1 µM (inactive)

## COc1ccc(C2c3ccc(O)cc3Oc3ncn4nc(-c5ccccn5)nc4c32)cc1OC (stereo unspecified)
[23]
  AC50: 122 µM (active)

Source: ChEMBL document CHEMBL1201862, “PubChem BioAssay data set” (2004)
